Experimental data: US9586907B2, “Isothiocyanate compounds, pharmaceutical compositions, and uses thereof” (priority 2006, dated 2017)
Values after ≈ are worked out from the molar mass of the structure shown. Marks after values point to notes of the source that are not given here.

How the values were obtained:
Candida albicans 90030 = test: Anti-fungal MIC, Candida albicans 90030; details: Candida albicans 90030
M. intracellularie = test: MIC, M. intracellularie; assay type: cell-based; details: M. intracellularie
Candida dlabrata 250^mdr = test: Anti-fungal MIC, Candida dlabrata 250^mdr; details: Candida dlabrata 250^mdr; MIC determined at 48 hours of growth
M. avium = test: MIC, M. avium; assay type: cell-based; details: M. avium
[1] = test system: Cryptococcus neoformans CNH99; test: Anti-fungal MIC, Cryptococcus neoformans CNH99; details: Cryptococcus neoformans CNH99
M. tuberculosis P = test: MIC, M. tuberculosis P; assay type: cell-based
Method: (§1) Next, several of the bifunctional ITC compounds were tested for their ability to inhibit the growth of some clinical isolates of Mycobacteria, the results of which are summarized in Table 3 below.

M. tuberculosis 210 = test: MIC, M. tuberculosis 210; assay type: cell-based
Method: as §1

M. cansassi = test: MIC, M. cansassi; assay type: cell-based; details: M. cansassi
[2] = test system: Candida parapsilosis 22019; test: Anti-fungal MIC, Candida parapsilosis 22019; details: Candida parapsilosis 22019
M. tuberculosis W4 = test: MIC, M. tuberculosis W4; assay type: cell-based
Method: as §1

[3] = test system: Candida albicans 5108^mdr; test: Anti-fungal MIC, Candida albicans 5108^mdr; details: Candida albicans 5108^mdr
[4] = test system: Aspergillus fumigatus Rit 11; test: Anti-fungal MIC, Aspergillus fumigatus Rit 11; details: Aspergillus fumigatus Rit 11
[5] = test system: human acute monocytic leukemia cells (THP1 cells); test: Growth of THP1 cells, MTT metabolic assay; assay type: cell-based; details: highest dosage of 32 μg/mL, 24 hours
Method: THP1 cells were either mock-treated (DMSO vehicle alone), or treated with increasing doses of new compounds 37 and 45, from 0 to 32 μg/mL. Cells were incubated in the presence of compound for 24 hours, and subsequently were assayed for total cell viability using an MTT, metabolic assay.

M. bovis BCG = test: microbe, parasite or virus in culture; assay type: cell-based
M. tuberculosis CDC1551 = test: MIC, M. tuberculosis CDC1551; assay type: cell-based
Method: as §1

virus (92TH594) = test: Viral proliferation in PBMC, p24 viral antigen; assay type: cell-based; details: for P24 values: PBMC
M. tuberculosis AB = test: MIC, M. tuberculosis AB; assay type: cell-based
Method: as §1

Mycobacteria = assay type: cell-based; details: Table 3
[6] = test system: human peritoneal macrophages infected with Mycobacterium tuberculosis H37Rv strain; test: In vitro infection model, cytotoxicity; details: up to 1 μg/mL; Rifampicin control
[7] = In vivo tolerance in mice; details: highest dose, 50 mg/kg
M. fortuitum = test: MIC, M. fortuitum; assay type: cell-based; details: M. fortuitum
M. tuberculosis H37Rv = test: MIC, M. tuberculosis H37Rv; assay type: cell-based
Method: as §1

[8] = test system: Aspergillus fumigatus Rit 21; test: Anti-fungal MIC, Aspergillus fumigatus Rit 21; details: Aspergillus fumigatus Rit 21
M. tuberculosis W = test: MIC, M. tuberculosis W; assay type: cell-based
Method: as §1

[9] = test system: Aspergillus fumigatus Rit 1; test: Anti-fungal MIC, Aspergillus fumigatus Rit 1; details: Aspergillus fumigatus Rit 1
M. scrofulaceum = test: MIC, M. scrofulaceum; assay type: cell-based; details: M. scrofulaceum
[10] = test system: Mycobacterium tuberculosis H37Rv strain; test: In vitro infection model, bacterial growth inhibition in infected macrophages; assay type: cell-based; details: M. tuberculosis H37Rv; up to 1 μg/mL; Rifampicin control
Excerpt: Rifampicin was used as a control for this experiment.

Candida albicans 90028 = test: Anti-fungal MIC, Candida albicans 90028; details: Candida albicans 90028

SMILES: OCCCCCCCCN=C=S [Compound 45, HO—(CH2)8—N═C═S]
- Anti-Fungal Activity (MIC) (Candida albicans 90030): 4 µg/mL
- MIC (M. intracellularie): 4 µg/mL (≈ 21.4 µM)
- Anti-Fungal Activity (MIC) (Candida dlabrata 250^mdr): 4** μg/mL
- MIC (M. avium): 4 µg/mL (≈ 21.4 µM)
- Anti-Fungal Activity (MIC) [1]: <1 µg/mL
- MIC (M. tuberculosis P): 2 µg/mL (≈ 10.7 µM)
- MIC (M. tuberculosis 210): 1 µg/mL (≈ 5.34 µM)
- MIC (M. cansassi): 1 µg/mL (≈ 5.34 µM)
- Anti-Fungal Activity (MIC) [2]: 8 µg/mL
- MIC (M. tuberculosis W4): 1 µg/mL (≈ 5.34 µM)
- Anti-Fungal Activity (MIC) [3]: 4 µg/mL
- Anti-Fungal Activity (MIC) [4]: 8 µg/mL
- effect on growth of THP1 cells [5]: not able to affect the growth of THP1 cells
- MIC (M. bovis BCG): 0.5 µg/mL (≈ 2.67 µM)
- MIC (M. tuberculosis CDC1551): 2 µg/mL (≈ 10.7 µM)
- difference in antiviral activity with and without preincubation prior to viral infection (virus (92TH594); Tables 5 and 6 compared): no detectable difference
- P24 values (virus (92TH594); compound 2.5 μg/ml, added to the cells after viral infection): 975 pg/mL
- P24 values (virus (92TH594); compound 2.5 μg/ml, added to the cells before viral infection): 960 pg/mL
- P24 values (virus (92TH594); compound 10 μg/ml, added to the cells after viral infection): 7 pg/mL
- P24 values (virus (92TH594); compound 10 μg/ml, added to the cells before viral infection): 6 pg/mL
- MIC (M. tuberculosis AB): 2 µg/mL (≈ 10.7 µM)
- activity against Mycobacteria (in words) (Mycobacteria): highest activity
- cytotoxicity in infected macrophages [6]: low cytotoxicity, similar to Rifampicin
- Anti-Fungal Activity (MIC) (Candida crusei 6258^mdr): 4 µg/mL
- toxicity in treated mice [7]: no toxicity was observed
- MIC (M. fortuitum): 4 µg/mL (≈ 21.4 µM)
- MIC (M. tuberculosis H37Rv): 1 µg/mL (≈ 5.34 µM)
- Anti-Fungal Activity (MIC) [8]: 8 µg/mL
- MIC (M. tuberculosis W): 1 µg/mL (≈ 5.34 µM)
- Anti-Fungal Activity (MIC) [9]: 8 µg/mL
- MIC (M. scrofulaceum): 8 µg/mL (≈ 42.7 µM)
- growth inhibitory activity in infected macrophages [10]: comparabale with the inhibition observed for Rifampicin
- Anti-Fungal Activity (MIC) (Candida albicans 90028): 8 µg/mL
